According to US8088930B2, “Benzimidazole derivatives” (Hoffmann-La Roche Inc., priority 2008, dated 2012):

Biological target: T1, FXR ligand binding domain (GST-FXR LBD fusion protein, human FXR aa 193-473) (Homo sapiens, UniProt Q96RI1)
T1 construct: fused on or other part: Glutathione-S-transferase (GST) fused N-terminally to the FXR LBD, used to capture the protein on glutathione SPA beads
T1 sequence (Q96RI1 211-486 limits assumed): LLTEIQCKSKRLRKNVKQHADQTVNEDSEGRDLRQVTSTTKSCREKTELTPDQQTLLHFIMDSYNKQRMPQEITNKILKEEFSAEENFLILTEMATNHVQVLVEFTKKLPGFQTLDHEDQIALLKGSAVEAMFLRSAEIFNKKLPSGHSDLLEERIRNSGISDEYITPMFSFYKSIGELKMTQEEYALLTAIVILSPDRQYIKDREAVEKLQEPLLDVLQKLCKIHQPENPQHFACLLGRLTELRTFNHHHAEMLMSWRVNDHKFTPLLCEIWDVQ
Assay: Radioligand binding assay (scintillation proximity, radioligand displacement)
Settings: 40 nM GST-FXR LBD on SPA beads, test compound 6×10^−9 M to 2.5×10^−5 M, read-out: h-IC50 Binding
How it was run: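 40 nM GST-FXR LBD, E. coli-expressed, bound to glutathione yttrium silicate SPA beads in 50 mM Hepes pH 7.4, 10 mM NaCl, 5 mM MgCl2, 0.01% CHAPS. Test compounds displace radioligand (e.g. 20 nM benzimidazolyl-acetamide ligand); bound ligand measured by scintillation proximity counting.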

Row | Compound | IC50
1 | COc1ccc(-c2nc3cc(F)c(F)cc3n2C(CCc2ccc(C(=O)O)cc2)C2CCCCC2)c(OC)n1 (single isomer, unassigned; (-)) [Example 146, (−)-4-{3-Cyclohexyl-3-[2-(2,6-dimethoxy-pyridin-3-yl)-5,6-difluoro-benzoimidazol-1-yl]-propyl}-benzoic acid] | 1 nM
2 | O=C(O)c1cc(F)c(OCC(C2CCCCC2)n2c(-c3ccc(Cl)cc3)nc3ccccc32)c(F)c1 (single isomer, unassigned; (-)) [Example 104, (−)-4-{2-[2-(4-Chloro-phenyl)-benzoimidazol-1-yl]-2-cyclohexyl-ethoxy}-3,5-difluoro-benzoic acid] | 50 nM
3 | O=C(O)c1cccc(OCC(C2CCCCC2)n2c(-c3ccc(Cl)cc3)nc3cc(F)c(F)cc32)n1 (centres unmarked) [Example 30, 6-{2-[2-(4-Chloro-phenyl)-5,6-difluoro-benzoimidazol-1-yl]-2-cyclohexyl-ethoxy}-pyridine-2-carboxylic acid] | 500 nM
4 | O=C(O)c1c(F)cc(OCC(C2CCCCC2)n2c(-c3ccc(Cl)cc3)nc3cc(F)c(F)cc32)cc1F (single isomer, unassigned; (-)) [Example 44, (−)-4-{2-[2-(4-Chloro-phenyl)-5,6-difluoro-benzoimidazol-1-yl]-2-cyclohexyl-ethoxy}-2,6-difluoro-benzoic acid] | 400 nM
5 | CC(C)(OCc1ccc(C(=O)O)cc1)C(C1CCCCC1)n1c(-c2ccc(Cl)cc2)nc2cc(F)c(F)cc21 (centres unmarked) [Example 57, 4-{2-[2-(4-Chloro-phenyl)-5,6-difluoro-benzoimidazol-1-yl]-2-cyclohexyl-1,1-dimethyl-ethoxymethyl}-benzoic acid] | 100 nM
6 | O=C(O)c1cnc(OCC(C2CCCCC2)n2c(-c3ccc(Cl)cc3)nc3cc(F)c(F)cc32)c(Br)c1 (centres unmarked) [Example 114, 5-Bromo-6-{2-[2-(4-chloro-phenyl)-5,6-difluoro-benzoimidazol-1-yl]-2-cyclohexyl-ethoxy}-nicotinic acid] | 60 nM
7 | O=C(O)C1(Oc2ccc(OCC(C3CCCCC3)n3c(-c4ccc(Cl)cc4)nc4cc(F)c(F)cc43)cc2)CCC1 (single isomer, unassigned; (+)) [Example 118, (+)-1-(4-{2-[2-(4-Chloro-phenyl)-5,6-difluoro-benzoimidazol-1-yl]-2-cyclohexyl-ethoxy}-phenoxy)-cyclobutanecarboxylic acid] | 310 nM
8 | O=C(O)c1ccc(COCC(C2CCCCC2)n2c(-c3ccc(Cl)cc3)nc3cc(F)c(F)cc32)c(F)c1 (centres unmarked) [Example 59, 4-{2-[2-(4-Chloro-phenyl)-5,6-difluoro-benzoimidazol-1-yl]-2-cyclohexyl-ethoxymethyl}-3-fluoro-benzoic] | 60 nM
9 | O=C(O)c1cc(F)c(OCC(C2CCCCCC2)n2c(-c3ccc(Cl)cc3)nc3cc(F)c(F)cc32)c(F)c1 (single isomer, unassigned; (+)) [Example 133, (+)-4-{2-[2-(4-Chloro-phenyl)-5,6-difluoro-benzoimidazol-1-yl]-2-cycloheptyl-ethoxy}-3,5-difluoro-benzoic acid] | 10 nM
10 | O=C(O)c1ccc(OCC(C2CCCCC2)n2c(-c3ccc(Cl)cc3)nc3cc(F)c(F)cc32)cc1 (single isomer, unassigned; (-)) [Example 6, (−)-4-{2-[2-(4-Chloro-phenyl)-5,6-difluoro-benzoimidazol-1-yl]-2-cyclohexyl-ethoxy}-benzoic acid] | 90 nM
11 | Cc1cc(C(=O)O)cc(C)c1OCC(C1CCCCC1)n1c(-c2ccc(Cl)cc2)nc2cc(F)c(F)cc21 (single isomer, unassigned; (-)) [Example 55, (−)-4-{2-[2-(4-Chloro-phenyl)-5,6-difluoro-benzoimidazol-1-yl]-2-cyclohexyl-ethoxy}-3,5-dimethyl-benzoic acid] | 4 nM
12 | Cc1cc(C(=O)O)ccc1OCC(C1CCCCC1)n1c(-c2ccc(Cl)cc2)nc2cc(F)c(F)cc21 (single isomer, unassigned; (-)) [Example 12, (−)-4-{2-[2-(4-Chloro-phenyl)-5,6-difluoro-benzoimidazol-1-yl]-2-cyclohexyl-ethoxy}-3-methyl-benzoic acid] | 50 nM
13 | COc1ccc(-c2nc3cc(F)c(F)cc3n2C(COc2c(F)cc(C(=O)O)cc2F)C2CCCCC2)c(OC)n1 (centres unmarked) [Example 96, 4-{2-Cyclohexyl-2-[2-(2,6-dimethoxy-pyridin-3-yl)-56-difluoro-benzoimidazol-1-yl]-ethoxy}-3,5-difluoro-benzoic acid] | 2 nM
14 | COc1ccc(-c2nc3cc(F)c(F)cc3n2C(COc2ccc(C(=O)O)cc2F)C2CCCCC2)c(OC)n1 (centres unmarked) [Example 46, 4-{2-Cyclohexyl-2-[2-(2,6-dimethoxy-pyridin-3-yl)-5,6-difluoro-benzoimidazol-1-yl]-ethoxy}-3-fluoro-benzoic acid] | 100 nM
